Measured values reported in PMC6841977, “Ruxolitinib binding to human serum albumin: bioinformatics, biochemical and functional characterization in JAK2V617F^+ cell models” (Scientific Reports, 2019).

Key:
Assay type in all cases: binding
[1] = target: T1, human serum albumin (HSA) (Homo sapiens, UniProt P02768); test: spectrofluorimetric titration (ex […] nm, em […] nm), pH […] °C
T1 construct: gene ALB; fatty acid-free human serum albumin

[2] = target: T1, human serum albumin (HSA); test: as above; remark: listed apart in the source
[3] = target: T1, human serum albumin (HSA); test: spectrophotometric titration ([…]-460 nm), pH […] °C
[4] = target: T1, human serum albumin (HSA); test: competitive displacement of heme-Fe(III) (spectrophotometry) and dansyl-arginine (fluorescence), pH […] °C

T1 sequence (P02768 25-609): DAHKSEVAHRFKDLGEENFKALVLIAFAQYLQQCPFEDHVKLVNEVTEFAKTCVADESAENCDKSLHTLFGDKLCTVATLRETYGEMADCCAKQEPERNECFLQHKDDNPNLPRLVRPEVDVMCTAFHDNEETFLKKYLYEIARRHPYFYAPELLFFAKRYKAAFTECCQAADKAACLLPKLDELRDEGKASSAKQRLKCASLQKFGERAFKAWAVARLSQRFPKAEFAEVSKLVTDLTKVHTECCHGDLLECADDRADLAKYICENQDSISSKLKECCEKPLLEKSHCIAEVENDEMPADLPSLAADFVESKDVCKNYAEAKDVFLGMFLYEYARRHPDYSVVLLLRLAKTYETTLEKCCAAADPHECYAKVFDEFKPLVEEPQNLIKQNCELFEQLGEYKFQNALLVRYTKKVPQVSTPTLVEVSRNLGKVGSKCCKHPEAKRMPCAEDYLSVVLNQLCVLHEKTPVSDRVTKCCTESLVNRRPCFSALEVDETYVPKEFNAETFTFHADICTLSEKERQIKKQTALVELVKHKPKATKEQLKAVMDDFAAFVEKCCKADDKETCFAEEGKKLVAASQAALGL

CN(C)c1cccc2c(S(=O)(=O)N[C@@H](CCCNC(=N)N)C(=O)O)cccc12 [dansyl-arginine] gave a Kd [1] of 27 ± 3 µM.
CN(C)c1cccc2c(S(=O)(=O)N(C)CC(=O)O)cccc12 [dansyl-sarcosine] showed a Kd [2] of 5.1 ± 0.5 µM.
For C=CC1=C(C)C2=Cc3c(C=C)c(C)c4[n]3[Fe+][n]3c(c(C)c(CCC(=O)O)c3=CC3=NC(=C4)C(C)=C3CCC(=O)O)=CC1=N2 [heme-Fe(III)], the Kd [3] was 0.076 ± 0.008 µM.
In the case of N#CC[C@H](C1CCCC1)n1cc(-c2ncnc3[nH]ccc23)cn1 [ruxolitinib], the Kd [4] is reported as 3.1 ± 0.4 µM.
